ChEMBL document CHEMBL3525919, “Potent inhibition of human sulfotransferase 1A1 by 17α-ethinylestradiol: role of 3'-phosphoadenosine 5'-phosphosulfate binding and structural rearrangements in regulating inhibition and activity” (Drug Metab Dispos, 2012)

Legend:
Sulfotransferase 1A1 [1] = molecular target: T1, Sulfotransferase 1A1 (Homo sapiens, UniProt P50225); assay: Binding affinity to human SULT1A1 expressed in Escherichia coli assessed as change in intrinsic fluorescence in presence of 3',5'-phosphoadenosine; type: ADME
Sulfotransferase 1A1 [2] = molecular target: T1, Sulfotransferase 1A1; assay: Binding affinity to human SULT1A1 expressed in Escherichia coli assessed as change in intrinsic fluorescence; type: ADME
Sulfotransferase 1A1 [3] = molecular target: T1, Sulfotransferase 1A1; assay: Inhibition of human SULT1A1 expressed in Escherichia coli assessed as beta-naphthol sulfation at 100 nM by Michaelis-Menten equation analysis
Sulfotransferase 1A1 [4] = molecular target: T1, Sulfotransferase 1A1; assay: Inhibition of human SULT1A1 expressed in Escherichia coli assessed as p-nitrophenol sulfation at 100 nM by Michaelis-Menten equation analysis
Sulfotransferase 1A1 [5] = molecular target: T1, Sulfotransferase 1A1; assay: Inhibition of human SULT1A1 expressed in Escherichia coli assessed as 17beta-estradiol sulfation at 100 nM by Michaelis-Menten equation analysis
Sulfotransferase 1A1 [6] = molecular target: T1, Sulfotransferase 1A1; assay: Inhibition of SULT1A1 in human MCF7 cells assessed as 17beta-estradiol sulfation; type: cell-based

T1 sequence (P50225 whole entry): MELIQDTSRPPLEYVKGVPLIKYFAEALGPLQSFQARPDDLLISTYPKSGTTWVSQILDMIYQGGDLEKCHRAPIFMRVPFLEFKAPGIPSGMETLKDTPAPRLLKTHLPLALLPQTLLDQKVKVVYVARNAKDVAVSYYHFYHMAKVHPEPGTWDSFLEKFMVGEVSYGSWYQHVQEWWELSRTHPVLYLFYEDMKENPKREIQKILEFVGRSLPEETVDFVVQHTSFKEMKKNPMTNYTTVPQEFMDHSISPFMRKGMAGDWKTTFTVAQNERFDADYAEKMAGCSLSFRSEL

Ki (Sulfotransferase 1A1 [3])	Ki (Sulfotransferase 1A1 [4])	Ki (Sulfotransferase 1A1 [5])	IC50 (Sulfotransferase 1A1 [6])	SMILES	Kd (Sulfotransferase 1A1 [1])	Kd (Sulfotransferase 1A1 [2])
–	–	–	–	C[C@]12CC[C@@H]3c4ccc(O)cc4CC[C@H]3[C@@H]1CC[C@@H]2O [ESTRADIOL]	1200 nM	2300 nM
19 nM	8.9 nM	14.9 nM	20 nM	C#C[C@]1(O)CC[C@H]2[C@@H]3CCc4cc(O)ccc4[C@H]3CC[C@@]21C [ETHINYL ESTRADIOL]	4.3 nM	500 nM
